IC50 data for eleven compounds are collected here from US20260250290A1 (BRISTOL-MYERS SQUIBB COMPANY, priority 2023, published 2026).

Counter-ions that a name gives are not always drawn.

The target in the assay is T1, full length SGK1 (Homo sapiens, UniProt O00141).
T1 construct: 125 μM full length SGK1 (Life Technologies Part #PR7358A); purchased Life Technologies PR7358A
T1 sequence (O00141 1-431): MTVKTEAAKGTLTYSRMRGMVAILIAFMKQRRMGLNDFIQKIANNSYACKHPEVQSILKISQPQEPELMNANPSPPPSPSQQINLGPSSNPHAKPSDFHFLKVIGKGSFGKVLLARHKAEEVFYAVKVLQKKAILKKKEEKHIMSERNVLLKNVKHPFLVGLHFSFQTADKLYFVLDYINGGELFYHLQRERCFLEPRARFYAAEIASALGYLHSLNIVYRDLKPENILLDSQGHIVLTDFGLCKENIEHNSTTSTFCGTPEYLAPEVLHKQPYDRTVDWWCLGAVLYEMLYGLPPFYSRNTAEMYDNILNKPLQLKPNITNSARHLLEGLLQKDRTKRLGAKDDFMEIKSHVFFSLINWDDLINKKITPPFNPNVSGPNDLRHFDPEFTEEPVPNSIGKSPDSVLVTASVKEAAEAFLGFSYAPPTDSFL
In words: SGK1 inhibition Assay A (Caliper LabChip electrophoretic separation of fluorescent peptide substrate and phosphorylated product). As to conditions: Assay A; 20 μM ATP, 40 min incubation; read-out: SGK1 IC50. It is filed as biochemical.

For the compound `CS(=O)(=O)c1ccc(-c2cc(N3CCC[C@@H](C(=O)Nc4ccccc4)C3)c3c(N)ncnn23)cc1` [Example 105, (R)-1-(4-amino-7-(4-(methylsulfonyl)phenyl)pyrrolo [2,1-f][1,2,4]triazin-5-yl)-N-phenylpiperidine-3-carboxamide], the IC50 was 335 nM. Then `CS(=O)(=O)c1ccc(-c2cc(N3CCC[C@@H](C(=O)NCc4ccccc4)C3)c3c(N)ncnn23)cc1` [Example 106, (R)-1-(4-amino-7-(4-(methylsulfonyl)phenyl)pyrrolo [2,1-f][1,2,4]triazin-5-yl)-N-benzylpiperidine-3-carboxamide], with 823 nM; and `CS(=O)(=O)N1CC=C(c2cc(N3CCC[C@@H](NC(=O)c4ccns4)C3)c3c(N)ncnn23)C1` [Example 112, (R)—N-(1-(4-amino-7-(1-(methylsulfonyl)-2,5-dihydro-1H-pyrrol-3-yl)pyrrolo[2,1-f][1,2,4]triazin-5-yl)piperidin-3-yl)isothiazole-5-carboxamide, TFA], with 4 nM. As for `CS(=O)(=O)N1CC=C(c2cc(N3CCC[C@@H](NC(=O)c4ccccc4)C3)c3c(N)ncnn23)C1` [Example 113, (R)—N-(1-(4-amino-7-(1-(methylsulfonyl)-2,5-dihydro-1H-pyrrol-3-yl)pyrrolo[2,1-f][1,2,4]triazin-5-yl)piperidin-3-yl)benzamide, TFA], the figure is 23 nM; as for `COc1cc(C(=O)N[C@@H]2CCCN(c3cc(C4=CCN(S(C)(=O)=O)C4)n4ncnc(N)c34)C2)ccn1` [Example 114, (R)—N-(1-(4-amino-7-(1-(methylsulfonyl)-2,5-dihydro-1H-pyrrol-3-yl)pyrrolo[2,1-f][1,2,4]triazin-5-yl)piperidin-3-yl)-2-methoxyisonicotinamide], 16 nM.

In the case of `COc1cc(C(=O)N[C@@H]2CCCN(c3cc(C4=CN(S(C)(=O)=O)CC4)n4ncnc(N)c34)C2)ccn1` [Example 115, (R)—N-(1-(4-amino-7-(1-(methylsulfonyl)-4,5-dihydro-1H-pyrrol-3-yl)pyrrolo[2,1-f][1,2,4]triazin-5-yl)piperidin-3-yl)-2-methoxyisonicotinamide], the IC50 came to 103 nM. Regarding `Cc1cc(C(=O)N[C@@H]2CCCN(c3cc(C4=CCN(S(C)(=O)=O)C4)n4ncnc(N)c34)C2)ccn1` [Example 116, (R)—N-(1-(4-amino-7-(1-(methylsulfonyl)-2,5-dihydro-1H-pyrrol-3-yl)pyrrolo[2,1-f][1,2,4]triazin-5-yl)piperidin-3-yl)-2-methylisonicotinamide], the IC50 turned out to be 12 nM. As for `CS(=O)(=O)N1CC=C(c2cc(N3CCC[C@@H](NC(=O)c4ccnc(F)c4)C3)c3c(N)ncnn23)C1` [Example 117, (R)—N-(1-(4-amino-7-(1-(methylsulfonyl)-2,5-dihydro-1H-pyrrol-3-yl)pyrrolo[2,1-f][1,2,4]triazin-5-yl)piperidin-3-yl)-2-fluoroisonicotinamide, TFA], the figure is 6 nM; as for `CS(=O)(=O)N1C=C(c2cc(N3CCC[C@@H](NC(=O)c4ccnc(F)c4)C3)c3c(N)ncnn23)CC1` [Example 118, (R)—N-(1-(4-amino-7-(1-(methylsulfonyl)-4,5-dihydro-1H-pyrrol-3-yl)pyrrolo[2,1-f][1,2,4]triazin-5-yl)piperidin-3-yl)-2-fluoroisonicotinamide, TFA], 130 nM; as for `CC(C)c1cc(C(=O)N[C@@H]2CCCN(c3cc(C4=CCN(S(C)(=O)=O)C4)n4ncnc(N)c34)C2)on1` [Example 119, (R)—N-(1-(4-amino-7-(1-(methylsulfonyl)-2,5-dihydro-1H-pyrrol-3-yl)pyrrolo[2,1-f][1,2,4]triazin-5-yl)piperidin-3-yl)-3-isopropylisoxazole-5-carboxamide, TFA], 18 nM. As for `CC(C)(C)OC(=O)N[C@@H]1CCCCN(c2cc(-c3ccc(S(C)(=O)=O)cc3)n3ncnc(N)c23)C1` [Example 120, tert-butyl (R)-(1-(4-amino-7-(4-(methylsulfonyl)phenyl)pyrrolo[2,1-f][1,2,4]triazin-5-yl)azepan-3-yl)carbamate], the figure is 3400 nM.

The term IC50 denotes the concentration needed to halve the response being measured.
